Assay results from patent publication US20260176253A1 (priority 2021, published 2026).

Assays:
mice = experiment: Head-twitch response (HTR) in mice; format: in vivo
Experimental: Head twitch response (HTR) experiments. C57BL/6J Mice (9-10 weeks old) are housed following an IACUC approved protocol. The mice are habituated in the test cage for at least 30 min, injected intraperitoneally with compound (injection volume 5 ml/kg), returned to the empty test cage, and filmed for 20 minutes. Each video is scored for the number of head-twitches by a trained observer blinded to treatment condition.

5HT2A sensor [1] = format: cell-based
5HT2A sensor [2] = format: cell-based; remark: listed apart in the source

Compound | head-twitch response (HTR) (mice) | activation of the 5HT2A sensor assay in agonist mode (5HT2A sensor [1]) | competition with 5-HT in the 5HT2A sensor assay in antagonist mode (5HT2A sensor [2])
COc1ccc2[nH]cc(CCN(C)C)c2c1 [Compound 5-MeO-DMT] | robust, dose-dependent head-twitch response | activate the 5HT2A sensor assay in agonist mode | 
COc1ccc2c(CCN(C)C)c[nH]c2c1 [Compound 6-MeO-DMT] | does not produce a HTR | do not activate the 5HT2A sensor assay in agonist mode | compete off 5-HT
O=C(c1ccc(F)cc1)C1CCN(CCn2c(=O)[nH]c3ccccc3c2=O)CC1 [Ketanserin] |  | do not activate the 5HT2A sensor assay in agonist mode | can compete with 5HT binding to 5HT2A
